# Assay results taken from patent US20150307938A1, “METHOD TO IDENTIFY A NOVEL CLASS OF IMMUNOLOGIC ADJUVANTS” (Lancell, L.L.C., priority 2011, published 2015).
# Test system: skin
# Assay: Affymetrix microarray of skin, DBP-4 hr and analogs vs. untreated; gene selection by log-2 fold change, Wilcoxon, Kendall tau (Tables 8, 9)
# Type: in vivo, mouse
# Settings: for Wilcoxon: DBP-4 hr vs. untreated, selected by p-value; for Kendall: selected by Kendall tau, expression vs. output
# [1] = gene 1500032L24Rik NM_026914_at
# [2] = gene 2210016L21Rik NM_028211_at
# [3] = gene 4931408A02Rik NM_027627_at
# [4] = gene 4933407C03Rik NM_028941_at
# [5] = gene 5730494N06Rik NM_027478_at
compound,measurement,setting,value
"CCCCOC(=O)c1ccccc1C(=O)OCCCC [DBP, dibutylphthalate]",Wilcoxon,[1],No
same,Kendall,[1],Yes
same,Wilcoxon,[2],No
same,Kendall,[2],Yes
same,Wilcoxon,[3],No
same,Kendall,[3],Yes
same,Wilcoxon,[4],No
same,Kendall,[4],Yes
same,Wilcoxon,[5],No
same,Kendall,[5],Yes
same,Wilcoxon,gene Ankrd24 NM_027480_at,No
same,Kendall,gene Ankrd24 NM_027480_at,Yes
same,Wilcoxon,gene Cby1 NM_028634_at,No
same,Kendall,gene Cby1 NM_028634_at,Yes
same,Wilcoxon,gene Ccdc123 NM_028120_at,No
same,Kendall,gene Ccdc123 NM_028120_at,Yes
same,Wilcoxon,gene Cdc42ep1 NM_027219_at,No
same,Kendall,gene Cdc42ep1 NM_027219_at,Yes
same,Wilcoxon,gene Cdca4 NM_028023_at,No
same,Kendall,gene Cdca4 NM_028023_at,Yes
same,Wilcoxon,gene Cenpv NM_028448_at,No
same,Kendall,gene Cenpv NM_028448_at,Yes
same,Wilcoxon,gene Chst14 NM_028117_at,No
same,Kendall,gene Chst14 NM_028117_at,Yes
same,Wilcoxon,gene Cnot8 NM_026949_at,No
same,Kendall,gene Cnot8 NM_026949_at,Yes
same,Wilcoxon,gene Ebpl NM_026598_at,No
same,Kendall,gene Ebpl NM_026598_at,Yes
same,Wilcoxon,gene Ict1 NM_026729_at,No
same,Kendall,gene Ict1 NM_026729_at,Yes
same,Wilcoxon,gene Ift80 NM_026641_at,No
same,Kendall,gene Ift80 NM_026641_at,Yes
same,Wilcoxon,gene Lrrfip2 NM_027742_at,No
same,Kendall,gene Lrrfip2 NM_027742_at,Yes
same,Wilcoxon,gene Med23 NM_027347_at,No
same,Kendall,gene Med23 NM_027347_at,Yes
same,Wilcoxon,gene Mlh1 NM_026810_at,No
same,Kendall,gene Mlh1 NM_026810_at,Yes
same,Wilcoxon,gene Mterfd3 NM_028832_at,No
same,Kendall,gene Mterfd3 NM_028832_at,Yes
same,Wilcoxon,gene Rnf135 NM_028019_at,No
same,Kendall,gene Rnf135 NM_028019_at,Yes
same,Wilcoxon,gene Rnf157 NM_027258_at,No
same,Kendall,gene Rnf157 NM_027258_at,Yes
same,Wilcoxon,gene Rrp1b NM_028244_at,No
same,Kendall,gene Rrp1b NM_028244_at,Yes
same,Wilcoxon,gene Slc25a35 NM_028048_at,No
same,Kendall,gene Slc25a35 NM_028048_at,Yes
same,Wilcoxon,gene Tmem55a NM_028264_at,No
same,Kendall,gene Tmem55a NM_028264_at,Yes
same,Wilcoxon,gene Tmem80 NM_027797_at,No
same,Kendall,gene Tmem80 NM_027797_at,Yes
same,Wilcoxon,gene Tmtc4 NM_028651_at,No
same,Kendall,gene Tmtc4 NM_028651_at,Yes
same,Wilcoxon,gene Zfyve21 NM_026752_at,No
same,Kendall,gene Zfyve21 NM_026752_at,Yes
